# Assay results published in US20080261994A1, “CYCLOPROPANE COMPOUNDS AND PHARMACEUTICAL USE THEREOF” (Japan Tobacco Inc., priority 2003, published 2008).
# Where two headings read alike, the source gives them in different places.
# How the values were obtained:
# Type in all cases: biochemical
# aggrecanase-1 = biological target: T1, aggrecanase-1 (Homo sapiens, UniProt O75173); test: Aggrecanase-1 inhibitory action (Particle Assay, GAG release from aggrecan-containing polyacrylamide particles)
# T1 sequence (O75173 213-837): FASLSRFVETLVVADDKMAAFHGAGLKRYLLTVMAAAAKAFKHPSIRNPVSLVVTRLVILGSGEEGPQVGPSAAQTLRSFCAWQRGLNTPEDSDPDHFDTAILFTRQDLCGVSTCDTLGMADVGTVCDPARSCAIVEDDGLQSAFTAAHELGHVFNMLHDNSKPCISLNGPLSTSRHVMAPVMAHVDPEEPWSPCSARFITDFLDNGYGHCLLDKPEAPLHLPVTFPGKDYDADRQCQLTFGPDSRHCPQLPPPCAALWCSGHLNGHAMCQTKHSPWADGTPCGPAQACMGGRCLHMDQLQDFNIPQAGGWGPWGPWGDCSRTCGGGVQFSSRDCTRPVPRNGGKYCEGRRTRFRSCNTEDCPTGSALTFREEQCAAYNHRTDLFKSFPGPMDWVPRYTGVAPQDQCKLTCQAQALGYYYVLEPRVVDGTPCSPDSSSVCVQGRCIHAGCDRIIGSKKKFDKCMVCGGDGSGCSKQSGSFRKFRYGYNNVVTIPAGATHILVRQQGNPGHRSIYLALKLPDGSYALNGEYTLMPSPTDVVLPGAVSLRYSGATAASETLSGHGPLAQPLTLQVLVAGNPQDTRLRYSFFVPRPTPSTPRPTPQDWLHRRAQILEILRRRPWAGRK
# In short: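 Enzyme and compound incubated with aggrecan-containing polyacrylamide particles in Tris-HCl buffer at 37° C for 15 h. Released GAG in supernatant measured with 1,9-dimethylmethylene blue at 595 nm against chondroitin sulfate standard; % inhibition from enzyme-free and inhibitor-free wells, reported as TC50 (μM).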
# MMP-1 = biological target: T2, MMP-1 (Homo sapiens, UniProt P03956); test: MMP-1 inhibitory action (Type I collagen Activity Measurement kit, FITC-labeled collagen type I)
# T2 sequence (P03956 100-469): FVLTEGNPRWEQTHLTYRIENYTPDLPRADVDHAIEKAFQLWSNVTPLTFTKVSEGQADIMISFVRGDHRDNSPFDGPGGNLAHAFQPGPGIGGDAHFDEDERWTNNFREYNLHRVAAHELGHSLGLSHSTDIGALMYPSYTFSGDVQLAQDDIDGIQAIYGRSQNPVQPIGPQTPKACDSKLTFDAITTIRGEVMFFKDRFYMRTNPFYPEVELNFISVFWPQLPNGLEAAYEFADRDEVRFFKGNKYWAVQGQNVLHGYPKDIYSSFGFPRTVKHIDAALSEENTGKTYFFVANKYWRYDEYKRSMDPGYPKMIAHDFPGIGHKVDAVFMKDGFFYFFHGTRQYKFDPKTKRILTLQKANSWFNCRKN
# Recombinant Human MMP-13 = biological target: T3, Recombinant Human MMP-13 (Homo sapiens, UniProt P45452); test: MMP-13 inhibitory activity (MMP-13 specific fluorescent substrate with quencher)
# T3 construct: purchased R&D systems 511-MM
# In short: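 Recombinant human MMP-13 with test compound, reaction started with quenched fluorogenic peptide 7-MCA-Pro-CHA-Gly-NVal-His-Ala-DPA in Tris-HCl buffer, 1 h at 25 °C, stopped with acetic acid. Fluorescence at Ex 325/Em 405 nm; % inhibition versus enzyme-free and inhibitor-free wells, reported as IC50 (μM).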
# [1] = aggrecanase-1 inhibitory action, read-out: IC50 AG1 (Experimental Example 1)
# [2] = MMP-1 inhibitory action, FITC-labeled collagen type I, 37° C. for 3 hr, read-out: IC50 MMP1 (Experimental Example 2)
# [3] = Recombinant Human MMP-13, fluorescent substrate, 25° C. for 1 h, read-out: IC50 MMP13 (Experimental Example 3)
# [4] = Experimental Example 1, read-out: IC50 AG1
# [5] = Experimental Example 2, read-out: IC50 MMP1
# [6] = Experimental Example 3, read-out: IC50 MMP13
Compound,IC50 (aggrecanase-1; [1]) [µM],IC50 (MMP-1; [2]) [µM],IC50 (Recombinant Human MMP-13; [3]) [µM],IC50 (aggrecanase-1; [4]) [µM],IC50 (MMP-1; [5]) [µM],IC50 (Recombinant Human MMP-13; [6]) [µM]
O=C(O)[C@]1(NS(=O)(=O)c2ccc(-c3cc(C(F)(F)F)on3)s2)C[C@@H]1c1ccccc1 [Example 2-43],< 0.1,< 1,< 0.1,–,–,–
CC(=O)NCCCC1(c2ccccc2)CC1(NS(=O)(=O)c1ccc(-c2ccc(Cl)cc2)s1)C(=O)O (stereo not drawn) [Example 2-272],–,–,–,< 0.1,≥ 10,< 0.1
CC1[C@H](c2ccccc2)[C@]1(NS(=O)(=O)c1ccc(-n2cc(C(F)(F)F)cn2)nc1)C(=O)O (stereo partly drawn) [Example 2-556],–,–,–,≥ 1,≥ 1,< 0.1
O=C(O)C1(NS(=O)(=O)c2ccc(-c3ccc(Cl)cn3)s2)C2CCCc3ccccc3C21 (stereo not drawn) [Example 2-365],–,–,–,< 0.1,< 1,< 0.1
CC1[C@H](c2ccccc2)[C@]1(NS(=O)(=O)c1ccc(-c2cc(C(N)=O)on2)s1)C(=O)O (stereo partly drawn) [Example 2-578],–,–,–,< 1,≥ 1,< 0.1
CC1(C)C(c2ccccc2)C1(NS(=O)(=O)c1ccc(-c2cc(C(F)(F)F)on2)s1)C(=O)O (stereo not drawn) [Example 2-275],–,–,–,< 0.1,≥ 1,< 1
O=C(OCCCc1ccccc1C1CC1(NS(=O)(=O)c1ccc(-c2cc(C(F)(F)F)on2)s1)C(=O)O)N1CC[C@@H](O)C1 (stereo partly drawn) [Example 2-255],< 0.1,≥ 1,< 0.1,–,–,–
O=C(O)[C@]1(NS(=O)(=O)c2ccc(-c3cc(C(F)(F)F)on3)o2)C[C@@H]1c1ccccc1 [Example 2-371],–,–,–,≥ 1,≥ 10,≥ 1
O=C(NC1CC1)OCC1(c2ccccc2)CC1(NS(=O)(=O)c1ccc(-c2cc(C(F)(F)F)on2)s1)C(=O)O (stereo not drawn) [Example 2-331],–,–,–,< 1,≥ 1,< 1
O=C(O)[C@]1(NS(=O)(=O)c2ccc(-c3cc(C(F)(F)F)on3)s2)C[C@@H]1c1ccccc1Br [Example 2-193],< 1,≥ 10,< 1,–,–,–
CC1[C@H](c2ccccc2)[C@]1(NS(=O)(=O)N1CCC(Oc2ccc(Cl)cc2)C1)C(=O)O (stereo partly drawn) [Example 2-500],–,–,–,≥ 1,≥ 1,< 1
C[C@]1(c2ccccc2)C[C@@]1(NS(=O)(=O)c1ccc(-c2ccc(F)c(Cl)c2)s1)C(=O)O [Example 2-413],–,–,–,< 0.1,≥ 1,< 1
O=C(Nc1cccc(C2CC2(NS(=O)(=O)c2ccc(-c3ccc(Cl)cc3)s2)C(=O)O)c1)N1CCOCC1 (stereo not drawn) [Example 2-251],< 1,≥ 10,< 1,–,–,–
O=C(O)[C@]1(NS(=O)(=O)c2ccc(-c3noc(C(F)(F)F)n3)s2)C[C@@H]1c1ccccc1 [Example 2-44],≥ 1,≥ 10,≥ 1,–,–,–
CC1[C@H](c2ccccc2)[C@]1(NS(=O)(=O)N1CCCN(c2ccc(Cl)cn2)CC1)C(=O)O (stereo partly drawn) [Example 2-461],–,–,–,< 1,≥ 10,≥ 1
C[C@]1(c2ccccc2)C[C@@]1(NS(=O)(=O)c1cn2cc(-c3ccccc3)nc2s1)C(=O)O [Example 2-518],–,–,–,< 1,< 1,< 0.1
CC(C)S(=O)(=O)CC1(c2ccccc2)CC1(NS(=O)(=O)c1ccc(-c2ccc(Cl)cc2)s1)C(=O)O (stereo not drawn) [Example 2-348],–,–,–,< 1,≥ 10,< 1
Cc1nc(-c2ccc(S(=O)(=O)N[C@@]3(C(=O)O)C(C)[C@@H]3c3ccccc3)s2)no1 (stereo partly drawn) [Example 2-451],–,–,–,≥ 1,≥ 10,≥ 1
CN1CCN(C(=O)Cc2cccc(C3CC3(NS(=O)(=O)c3ccc(-c4ccc(Cl)cc4)s3)C(=O)O)c2)CC1 (stereo not drawn) [Example 2-191],< 0.1,≥ 10,< 0.1,–,–,–
CCC1[C@H](c2ccccc2)[C@]1(NS(=O)(=O)c1ccc(-c2cc(C(F)(F)F)on2)s1)C(=O)O (stereo partly drawn) [Example 2-328],–,–,–,< 0.1,< 0.1,< 0.1

Compound,IC50 (aggrecanase-1; [1]) [µM],IC50 (MMP-1; [2]) [µM],IC50 (Recombinant Human MMP-13; [3]) [µM],IC50 (aggrecanase-1; [4]) [µM],IC50 (MMP-1; [5]) [µM],IC50 (Recombinant Human MMP-13; [6]) [µM]
O=C(O)[C@]1(NS(=O)(=O)c2ccc(-c3ccc([N+](=O)[O-])cc3)s2)C[C@@H]1c1ccccc1 [Example 2-388],–,–,–,< 1,≥ 1,< 1
CC1[C@H](c2ccccc2)[C@]1(NS(=O)(=O)c1ccc(-n2cc(Br)cn2)s1)C(=O)O (stereo partly drawn) [Example 2-494],–,–,–,< 0.1,< 0.1,< 0.1
CC1[C@H](c2ccccc2)[C@]1(NS(=O)(=O)c1ccc(-c2cc(C3CC3)on2)s1)C(=O)O (stereo partly drawn) [Example 2-433],–,–,–,< 0.1,< 1,< 0.1
O=C(NO)C1(NS(=O)(=O)c2ccc(OCc3ccc(Cl)cc3Cl)cc2)C2CCc3ccccc3C21 (stereo not drawn) [Example 2-360],–,–,–,< 0.1,≥ 10,< 1
C=C(Cl)c1cnn(-c2ccc(S(=O)(=O)N[C@@]3(C(=O)O)C(C)[C@@H]3c3ccccc3)s2)c1 (stereo partly drawn) [Example 2-545],–,–,–,< 0.1,< 0.1,< 0.1
COCc1cccc(C2CC2(NS(=O)(=O)c2ccc(-c3ccc(Cl)cn3)s2)C(=O)O)c1 (stereo not drawn) [Example 2-57],< 1,≥ 10,< 0.1,–,–,–
O=C(NCCC(F)(F)F)c1ccc(S(=O)(=O)NC2(C(=O)O)CC2c2ccccc2)s1 (stereo not drawn) [Example 2-97],≥ 10,≥ 10,≥ 10,–,–,–
Cc1cn(-c2ccc(S(=O)(=O)N[C@@]3(C(=O)O)C(C)[C@@H]3c3ccccc3)s2)cn1 (stereo partly drawn) [Example 2-367],–,–,–,≥ 1,≥ 10,≥ 1
CN(C)CCOc1ccccc1C1CC1(NS(=O)(=O)c1ccc(-c2ccc(Cl)cc2)s1)C(=O)O (stereo not drawn) [Example 2-49],≥ 1,≥ 10,≥ 10,–,–,–
CC(C)C1CC1(NS(=O)(=O)c1ccc(-c2ccc(Cl)cc2)s1)C(=O)O (stereo not drawn) [Example 2-59],< 1,≥ 10,< 1,–,–,–
CC(C)N1CCN(Cc2cccc([C@H]3C[C@@]3(NS(=O)(=O)c3ccc(-c4cc(C(F)(F)F)on4)s3)C(=O)O)c2)CC1 [Example 2-304],–,–,–,< 1,≥ 1,< 1
CC1[C@H](c2ccccc2)[C@]1(NS(=O)(=O)c1ccc(-n2cc(CO)cn2)s1)C(=O)O (stereo partly drawn) [Example 2-561],–,–,–,< 0.1,< 0.1,< 0.1
O=C(O)[C@]1(NS(=O)(=O)c2ccc(-c3ccc(Cl)nc3)s2)C[C@@H]1c1ccccc1 [Example 2-27],< 1,≥ 10,< 1,–,–,–
O=C(O)C1(NS(=O)(=O)c2ccc(-c3ccc(Cl)cc3)cc2)CC1c1cccc(OCCO)c1 (stereo not drawn) [Example 1-66],< 1,≥ 1,< 0.1,–,–,–
COc1ccc2[nH]c(-c3ccc(S(=O)(=O)N[C@@]4(C(=O)O)C(C)[C@@H]4c4ccccc4)s3)nc2c1 (stereo partly drawn) [Example 2-607],–,–,–,≥ 1,≥ 1,< 0.1
O=C(O)C1(NS(=O)(=O)N2CCC(Oc3ccc(Cl)cc3)CC2)CC1c1ccccc1 (stereo not drawn) [Example 2-128],≥ 10,≥ 10,≥ 10,–,–,–
CC1[C@H](c2ccccc2)[C@]1(NS(=O)(=O)N1CCC(OCc2ccc(Cl)cc2)C1)C(=O)O (stereo partly drawn) [Example 2-550],–,–,–,≥ 1,≥ 1,≥ 1
CN(Cc1cccnc1)c1cccc([C@H]2C[C@@]2(NS(=O)(=O)c2ccc(-c3ccc(Cl)cc3)s2)C(=O)O)c1 [Example 2-183],< 0.1,≥ 1,< 0.1,–,–,–
O=C(c1ccc(Cl)cc1)N1CCN(S(=O)(=O)NC2(C(=O)O)CC2c2ccccc2)CC1 (stereo not drawn) [Example 2-159],≥ 10,≥ 10,≥ 10,–,–,–
